# In ChEMBL document CHEMBL4043151, “Synthesis and biological evaluation of Aspergillomarasmine A derivatives as novel NDM-1 inhibitor to overcome antibiotics resistance” (Bioorg Med Chem, 2017):
# Assays:
# [1] = Inhibition of NDM1 (unknown origin) pre-incubated for 10 mins before nitrocefin substrate addition
# [2] = system: Klebsiella pneumoniae ATCC BAA-2146; assay: Inhibition of NDM1 in Klebsiella pneumoniae ATCC BAA-2146 assessed as rescue concentration needed to fully regain activity of meropenem at clinical breakpoint (2.5 uM) by cell-based synergy screening assay
# [3] = system: Klebsiella pneumoniae ATCC BAA-2146; assay: Inhibition of NDM1 in Klebsiella pneumoniae ATCC BAA-2146 assessed as potentiation of meropenem-induced microbial growth inhibition by cell-based synergy screening assay
# [4] = system: Klebsiella pneumoniae ATCC BAA-2146; assay: Inhibition of NDM1 in Klebsiella pneumoniae ATCC BAA-2146 assessed as potentiation of meropenem-induced microbial growth inhibition by measuring meropenem MIC by cell-based synergy screening assay (Rvb (meropenem MIC alone) = 65 microg/ml)
# [5] = system: Klebsiella pneumoniae ATCC BAA-2146; assay: Inhibition of NDM1 in Klebsiella pneumoniae ATCC BAA-2146 assessed as potentiation of meropenem-induced microbial growth inhibition by measuring compound MIC by cell-based synergy screening assay
# Klebsiella pneumoniae = assay: Growth inhibition of Klebsiella pneumoniae ATCC BAA-2146
# [6] = system: Klebsiella pneumoniae ATCC BAA-2146; assay: Inhibition of NDM1 in Klebsiella pneumoniae ATCC BAA-2146 assessed as potentiation of meropenem-induced microbial growth inhibition by measuring meropenem MIC by cell-based synergy screening assay (Rvb (meropenem MIC alone) = 32.5 microg/ml)
# [7] = system: Klebsiella pneumoniae ATCC BAA-2146; assay: Inhibition of NDM1 in Klebsiella pneumoniae ATCC BAA-2146 assessed as potentiation of meropenem-induced microbial growth inhibition by measuring meropenem MIC by cell-based synergy screening assay (Rvb (meropenem MIC alone) = 16.25 microg/ml)
# [8] = system: Klebsiella pneumoniae ATCC BAA-2146; assay: Inhibition of NDM1 in Klebsiella pneumoniae ATCC BAA-2146 assessed as potentiation of meropenem-induced microbial growth inhibition by measuring meropenem MIC by cell-based synergy screening assay (Rvb (meropenem MIC alone) = 2 microg/ml)
# [9] = system: Klebsiella pneumoniae ATCC BAA-2146; assay: Inhibition of NDM1 in Klebsiella pneumoniae ATCC BAA-2146 assessed as potentiation of meropenem-induced microbial growth inhibition by measuring meropenem MIC by cell-based synergy screening assay (Rvb (meropenem MIC alone) = 8 microg/ml)
Compound,IC50 ([1]; read-out: IC50) [µM],Activity [2] [µM],fractional inhibitory concentration index (FICI) [3],MIC [4] [µg/mL],MIC [5] [µg/mL],MIC (Klebsiella pneumoniae) [µg/mL],MIC [6] [µg/mL],MIC [7] [µg/mL],MIC [8] [µg/mL],MIC [9] [µg/mL],IC50 [1]
N[C@@H](CN[C@@H](CN1CCC[C@H]1C(=O)O)C(=O)O)C(=O)O,12.8,> 100,2,65,> 280,> 280,–,–,–,–,–
C[C@H](NC[C@H](NC[C@H](N)C(=O)O)C(=O)O)C(=O)O,22.1,> 100,< 1.5,–,> 250,250,65,–,–,–,–
N[C@H](CN[C@@H](CN[C@@H](CC(=O)O)C(=O)O)C(=O)O)C(=O)O,9.3,50,< 0.5,–,> 250,62.5,–,65,–,–,–
COC(=O)[C@H](CN[C@@H](CC(=O)O)C(=O)O)NC[C@H](N)C(=O)OC,17.2,> 100,2,65,> 298,> 298,–,–,–,–,–
N[C@@H](CN[C@@H](CN1CCC[C@@H]1C(=O)O)C(=O)O)C(=O)O,9,> 100,< 1.5,–,> 406,406,65,–,–,–,–
N[C@@H](CN[C@@H](CN[C@@H](CC(=O)O)C(=O)O)C(=O)O)C(=O)O,7,25,< 0.28,–,> 250,62.5,–,–,65,–,–
N[C@H](CN[C@H](CN[C@@H](CC(=O)O)C(=O)O)C(=O)O)C(=O)O,8.1,50,< 0.62,–,> 250,125,–,–,–,65,–
N[C@@H](CN[C@H](CN[C@@H](CC(=O)O)C(=O)O)C(=O)O)C(=O)O,10.4,100,< 1,–,> 250,125,65,–,–,–,–
C[C@H](CC(=O)O)NC[C@H](NC[C@H](N)C(=O)O)C(=O)O,94,> 100,< 1,–,> 250,125,65,–,–,–,–
COC(=O)C[C@H](NC[C@H](NC[C@H](N)C(=O)O)C(=O)O)C(=O)OC,–,> 100,2,65,> 298,> 298,–,–,–,–,Not Active
C[C@@H](CN[C@@H](CN[C@@H](CC(=O)O)C(=O)O)C(=O)O)C(=O)O,10.4,50,< 0.62,–,> 250,125,–,–,–,65,–
